Paper PMC8296708, “The pan HDAC inhibitor Givinostat improves muscle function and histological parameters in two Duchenne muscular dystrophy murine models expressing different haplotypes of the LTBP4 gene” (Skeletal Muscle, 2021)

Assay: Body weight of mdx mice
Format: in vivo, mouse (C57BL/10ScSn-Dmd^mdx/J)
Description: In the efficacy studies, Givinostat powder (ITF2357) was suspended in 0.5% methylcellulose (Sigma-Aldrich) and administered p.o. (by gavage) at the doses of 0.1, 0.3, 1, 5, 10, 25, and 37.5 mg/kg qdx5x15weeks (administration volume per mouse: 10 mL/kg) in mdx mice (see Additional Figure 1A). Vehicle-treated mdx mice received 0.5% methylcellulose suspension. Givinostat suspension was stored at + 4 °C, and it was freshly prepared every 7 days. Probably due to the impairment of their tongue and masticatory muscles, the oral gavage procedure turned out to be difficult to perform, and chronic treatment of D2.B10 mice by this route was considered to bear a high risk of damaging the esophagus. For this reason, Givinostat was administered in the drinking water. […] Water consumption was weekly monitored throughout the entire duration of the study weighing the bottle of each cage (maximum 4 mice per cage). […] All mice were monitored daily and tolerability was evaluated on the basis of BW and clinical signs.
In both efficacy studies, the effectiveness of treatments was evaluated every week by measuring the forelimb strength by a grip strength meter (Ugo Basile SRL, Italy). BW of mdx (see Additional Figure 2) and D2.B10 mice (see Additional Figure 3) was also measured in order to normalize the absolute grip strength of each mouse with respect to its BW. […]

Compound: CCN(CC)Cc1ccc2cc(COC(=O)Nc3ccc(C(=O)NO)cc3)ccc2c1 [Givinostat]
- Body weight (25 mg/kg, day 105 (vehicle 37.2 ± 0.8, p < 0.01)): 32.9 ± 0.9 g
- Body weight (37.5 mg/kg, day 105 (vehicle 37.2 ± 0.8, p < 0.05)): 33.1 ± 0.9 g
